Tests used:
[1] = test system: MV-4-11 cells; assay: MV-4-11 cell proliferation inhibition (CCK-8); type: cell-based; conditions: Homo sapiens, 72 hours; for inhibition at 0.1 µM: MV4-11, MV-4-11, compound concentration 100 nM, read-out: Inhibition rate (%); for IC50: MV4-11, MV-4-11 proliferation
Description: MV-4-11 cells are one of the acute myeloid leukemia cells with a Fms-like tyrosine kinase (FLT3) gene mutation, and these cells are used to test inhibition of proliferation and survival of leukemia cells.
MV-4-11 cells cultured in a 96-well cell culture plate were treated with the compound of the present invention and cultured for 72 hours. Thereafter, the antiproliferative effect of the compound was assayed by the CCK-8 method using a tetrazolium salt.

[2] = molecular target: T1, Recombinant purified human CDK7 (Homo sapiens, UniProt P50613); assay: CDK7 activity inhibition, ADP-Glo kinase assay; type: biochemical; conditions: ATP 90 μM, MBP substrate, 2 hours 30° C.
T1 construct: purchased ThermoFisher PV3868
T1 sequence (P50613 whole entry): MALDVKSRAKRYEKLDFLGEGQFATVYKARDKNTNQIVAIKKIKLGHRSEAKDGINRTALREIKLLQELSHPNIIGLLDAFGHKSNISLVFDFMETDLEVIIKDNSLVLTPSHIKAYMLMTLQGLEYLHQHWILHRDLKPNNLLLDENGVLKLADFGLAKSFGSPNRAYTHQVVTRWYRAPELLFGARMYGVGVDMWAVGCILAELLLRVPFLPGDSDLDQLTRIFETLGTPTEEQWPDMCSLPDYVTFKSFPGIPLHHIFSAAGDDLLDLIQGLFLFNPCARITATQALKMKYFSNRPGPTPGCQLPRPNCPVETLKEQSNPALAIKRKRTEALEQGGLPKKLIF
T1 sequence (P51946 whole entry partner): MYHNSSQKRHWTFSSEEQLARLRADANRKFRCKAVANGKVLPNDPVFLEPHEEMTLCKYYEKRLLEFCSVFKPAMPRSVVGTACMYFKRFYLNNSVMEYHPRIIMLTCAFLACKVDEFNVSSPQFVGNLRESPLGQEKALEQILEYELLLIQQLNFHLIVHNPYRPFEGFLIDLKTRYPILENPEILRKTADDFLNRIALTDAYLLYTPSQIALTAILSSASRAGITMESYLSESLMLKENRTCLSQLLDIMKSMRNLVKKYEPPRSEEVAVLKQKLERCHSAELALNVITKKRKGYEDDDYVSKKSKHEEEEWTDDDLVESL
T1 sequence (P51948 whole entry partner): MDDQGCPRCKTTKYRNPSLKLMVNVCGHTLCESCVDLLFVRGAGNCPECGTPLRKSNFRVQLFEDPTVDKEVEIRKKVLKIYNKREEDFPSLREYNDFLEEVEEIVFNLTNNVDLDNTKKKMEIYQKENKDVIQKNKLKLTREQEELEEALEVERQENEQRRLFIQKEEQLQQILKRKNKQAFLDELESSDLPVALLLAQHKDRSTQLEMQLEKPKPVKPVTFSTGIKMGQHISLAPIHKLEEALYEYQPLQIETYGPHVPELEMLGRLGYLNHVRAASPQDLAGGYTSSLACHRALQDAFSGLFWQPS
Description: Recombinant purified human CDK7 (ThermoFisher, PV3868) and ADP Glo Kinase Assay Kit (Promega, V9102) were used. CDK7 was diluted with 1× kinase reaction buffer (40 mM Tris-Cl, pH 7.5, 20 mM MgCl2, 0.1 mg/ml BSA and 50 μM DTT) and added to a 96 well plate (CDK7 final concentration per reaction: 50 ng). It was finally treated with the compound of the present invention to a 1% DMSO aqueous solution, and a substrate cocktail containing ATP (final concentration of 90 μM) and 0.2 μg/μl MBP (myelin basic protein) in a total of 25 μl reaction mass was added to a 96 well plate, thereby initiating the enzymatic reaction. After 2 hours of incubation (30° C.), an equal volume (25 μl per reaction) of ADP Glo was added and incubated at room temperature for 60 minutes (30° C.). Thereafter, kinase detection reagent (50 μl per reaction) was added and incubated at room temperature for 30 minutes (30° C.). The kinase activity was measured by the chemiluminescence method according to the ADP Glo Kinase Assay Kit instruction manual, and the CDK7 inhibitory activity of the compounds of the present invention was calculated.

| SMILES | inhibition at 0.1 µM [1] [%] | IC50 [2] [nM] | IC50 [1] [nM] |
| --- | --- | --- | --- |
| C=CC(=O)Nc1ccc(-c2cccc(C(C)C(=O)Nc3ncc(C)s3)c2)cn1 (stereo not shown) [Compound 1, N-(5-(3-(1-((5-methylthiazol-2-yl)amino)-1-oxopropan-2-yl)phenyl)pyridin-2-yl)acrylamide] | 80 |  |  |
| C=CC(=O)Nc1ccc(-c2cccc(C(C)C(=O)Nc3ncc(C4CC4)s3)c2)cn1 (stereo not shown) [Compound 2, N-(5-(3-(1-((5-cyclopropylthiazol-2-yl)amino)-1-oxopropan-2-yl)phenyl)pyridin-2-yl)acrylamide] |  | 40 |  |
| C=CC(=O)Nc1ccc(-c2cccc(C(C)C(=O)Nc3ncc(CC)s3)c2)cn1 (stereo not shown) [Compound 4, N-(5-(3-(1-((5-ethylthiazol-2-yl)amino)-1-oxopropan-2-yl)phenyl)pyridin-2yl)acrylamide] | 100 |  | 50.8 |
| CCc1cnc(NC(=O)[C@@H](C)c2cccc(-c3ccc(NC(=O)/C=C/CN(C)C)nc3)c2)s1 [Compound 17, (S,E)-4-(dimethylamino)-N-(5-(3-(1-((5-ethylthiazol-2-yl)amino)-1-oxopropan-2-yl)phenyl)pyridin-2-yl)but-2-enamide] | 100 |  |  |
| C=CC(=O)Nc1ccc(-c2cccc([C@H](C)C(=O)Nc3ncc(C#N)s3)c2)cn1 [Compound 18, (S)-N-(5-(3-(1-((5-cyanothiazol-2-yl)amino)-1-oxopropan-2-yl)phenyl)pyridin-2-yl)acrylamide] | 67 |  |  |
| C=CC(=O)Nc1ccc(-c2cccc([C@H](CC)C(=O)Nc3ncc(CC)s3)c2)cn1 [Compound 19, (S)-2-(3-(6-acrylamidopyridin-3-yl)phenyl)-N-(5-ethylthiazol-2-yl)butanamide] | 75 |  |  |
| C[C@H](C(=O)Nc1ncc(C#N)s1)c1cccc(-c2ccc(NC(=O)/C=C/CN(C)C)nc2)c1 [Compound 21, (S,E)-N-(5-(3-(1-((5-cyanothiazol-2-yl)amino)-1-oxopropan-2-yl)phenyl)pyridin-2-yl)-4-(dimethylamino)but-2-enamide] | 84 |  |  |
| C=CC(=O)Nc1cnc(-c2cccc([C@H](C)C(=O)Nc3ncc(C#N)s3)c2)cn1 [Compound 25, (S)-N-(5-(3-(1-((5-cyanothiazol-2-yl)amino)-1-oxopropan-2-yl)phenyl)pyrazin-2-yl)acrylamide] | 100 |  |  |
| C=CC(=O)Nc1ccc(-c2cccc([C@H](C)C(=O)Nc3ncc(CC)s3)c2)cc1C#N [Compound 30, (S)-N-(3-cyano-3′-(1-((5-ethylthiazol-2-yl)amino)-1-oxopropan-2-yl)-[1,1′-biphenyl]-4-yl)acrylamide] | 96 |  |  |
| C=CC(=O)Nc1ccc(-c2cccc([C@H](C)C(=O)Nc3ncc(CC)s3)c2)c(F)n1 [Compound 31, (S)-N-(5-(3-(1-((5-ethylthiazol-2-yl)amino)-1-oxopropan-2-yl)phenyl)-6-fluoropyridin-2-yl)acrylamide] | 98 |  |  |
| C=CC(=O)Nc1ccc(-c2cccc([C@H](C)C(=O)Nc3ncc(C#N)s3)c2)nn1 [Compound 32, (S)-N-(6-(3-(1-((5-cyanothiazol-2-yl)amino)-1-oxopropan-2-yl)phenyl)pyridazin-3-yl)acrylamide] | 100 |  |  |
| C=CC(=O)Nc1ncc(-c2cccc([C@H](C)C(=O)Nc3ncc(C#N)s3)c2)cc1F [Compound 33, (S)-N-(5-(3-(1-((5-cyanothiazol-2-yl)amino)-1-oxopropan-2-yl)phenyl)-3-fluoropyridin-2-yl)acrylamide] | 100 |  |  |
| C=CC(=O)Nc1ncc(-c2cccc([C@H](C)C(=O)Nc3ncc(C#N)s3)c2)nc1C [Compound 34, (S)-N-(5-(3-(1-((5-cyanothiazol-2-yl)amino)-1-oxopropan-2-yl)phenyl)-3-methylpyrazin-2-yl)acrylamide] | 80 |  |  |
| C=CC(=O)Nc1ccc(-c2cccc([C@H](C)C(=O)Nc3ncc(C(C)C)s3)c2)cn1 [Compound 35, (S)-N-(5-(3-(1-((5-isopropylthiazol-2-yl)amino)-1-oxopropan-2-yl)phenyl)pyridin-2-yl)acrylamide] | 98 |  |  |
| C=CC(=O)Nc1cnc(-c2cccc([C@H](C)C(=O)Nc3ncc(C(C)C)s3)c2)cn1 [Compound 36, (S)-N-(5-(3-(1-((5-isopropylthiazol-2-yl)amino)-1-oxopropan-2-yl)phenyl)pyrazin-2-yl)acrylamide] | 100 |  |  |
| C=CC(=O)Nc1ccc(-c2cccc([C@H](C)C(=O)Nc3ncc(C(F)(F)F)s3)c2)cn1 [Compound 38, (S)-N-(5-(3-(1-oxo-1-((5-(trifluoromethyl)thiazol-2-yl)amino)propan-2-yl)phenyl)pyridin-2-yl)acrylamide] | 98 |  |  |

| SMILES | inhibition at 0.1 µM [1] [%] | IC50 [2] [nM] | IC50 [1] [nM] |
| --- | --- | --- | --- |
| C=CC(=O)Nc1ccc(-c2cccc([C@H](C)C(=O)Nc3ncc(C(F)(F)F)s3)c2)nn1 [Compound 39, (S)-N-(6-(3-(1-oxo-1-((5-(trifluoromethyl)thiazol-2-yl)amino)propan-2-yl)phenyl)pyridazin-3-yl)acrylamide] | 100 |  | 30 |
| C=CC(=O)Nc1ccc(-c2cccc([C@H](C)C(=O)Nc3ncc(C(C)C)s3)c2)nn1 [Compound 40, (S)-N-(6-(3-(1-((5-isopropylthiazol-2-yl)amino)-1-oxopropan-2-yl)phenyl)pyridazin-3-yl)acrylamide] | 100 |  | 27.8 |
| C=CC(=O)Nc1ccc(-c2cncc(C(C)C(=O)Nc3ncc(C#N)s3)c2)cn1 (stereo not shown) [Compound 41, N-(5′-(1-((5-cyanothiazol-2-yl)amino)-1-oxopropan-2-yl)-[3,3′-bipyridin]-6-yl)acrylamide] | 100 |  |  |
| C=CC(=O)Nc1ccc(-c2cc(C(C)C(=O)Nc3ncc(C#N)s3)ccn2)cn1 (stereo not shown) [Compound 42, N-(4-(1-((5-cyanothiazol-2-yl)amino)-1-oxopropan-2-yl)-[2,3′-bipyridin]-6′-yl)acrylamide] | 100 |  |  |
| C=CC(=O)Nc1cnc(-c2cncc(C(C)C(=O)Nc3ncc(C4CC4)s3)c2)cn1 (stereo not shown) [Compound 43, N-(5-(5-(1-((5-cyclopropylthiazol-2-yl)amino)-1-oxopropan-2-yl)pyridin-3-yl)pyrazin-2-yl)acrylamide] | 100 |  | 24.6 |
| C=CC(=O)Nc1cnc(-c2cncc(C(C)C(=O)Nc3ncc(C#N)s3)c2)cn1 (stereo not shown) [Compound 44, N-(5-(5-(1-((5-cyanothiazol-2-yl)amino)-1-oxopropan-2-yl)pyridin-3-yl)pyrazin-2-yl)acrylamide] | 100 |  | 54.4 |
| C=CC(=O)Nc1cnc(-c2cncc(C(C)C(=O)Nc3ncc(CC)s3)c2)cn1 (stereo not shown) [Compound 46, N-(5-(5-(1-((5-ethylthiazol-2-yl)amino)-1-oxopropan-2-yl)pyridin-3-yl)pyrazin-2-yl)acrylamide] | 100 |  | 9.1 |
| C=CC(=O)Nc1cnc(-c2cncc(C(C)C(=O)Nc3ncc(C(C)C)s3)c2)cn1 (stereo not shown) [Compound 47, N-(5-(5-(1-((5-isopropylthiazol-2-yl)amino)-1-oxopropan-2-yl)pyridin-3-yl)pyrazin-2-yl)acrylamide] | 100 |  | 12.2 |
| C=CC(=O)Nc1cnc(-c2cncc(C(C)C(=O)Nc3ncc(C(C)=O)s3)c2)cn1 (stereo not shown) [Compound 48, N-(5-(5-(1-((5-acetylthiazol-2-yl)amino)-1-oxopropan-2-yl)pyridin-3-yl)pyrazin-2-yl)acrylamide] | 100 |  |  |
| C=CC(=O)Nc1ccc(-c2cncc(C(C)C(=O)Nc3ncc(C(F)(F)F)s3)c2)nn1 (stereo not shown) [Compound 49, N-(6-(5-(1-oxo-1-((5-(trifluoromethyl)thiazol-2-yl)amino)propan-2-yl)pyridin-3-yl)pyridazin-3-yl)acrylamide] | 100 |  | 18.7 |
| C=CC(=O)Nc1ccc(-c2cc(C(C)C(=O)Nc3ncc(C4CC4)s3)ccn2)cn1 (stereo not shown) [Compound 50, N-(4-(1-((5-cyclopropylthiazol-2-yl)amino)-1-oxopropan-2-yl)-[2,3′-bipyridin]-6′-yl)acrylamide] | 100 |  | 17.2 |
| C=CC(=O)Nc1cnc(-c2cncc(C(C)C(=O)Nc3ncc(Cl)s3)c2)cn1 (stereo not shown) [Compound 61, N-(5-(5-(1-((5-chlorothiazol-2-yl)amino)-1-oxopropan-2-yl)pyridin-3-yl)pyrazin-2-yl)acrylamide] |  |  | 9.1 |
| C=CC(=O)Nc1cnc(-c2cncc(C(C)C(=O)Nc3ncc(OC)s3)c2)cn1 (stereo not shown) [Compound 66, N-(5-(5-(1-((5-methoxythiazol-2-yl)amino)-1-oxopropan-2-yl)pyridin-3-yl)pyrazin-2-yl)acrylamide] |  |  | 22.8 |
| C=CC(=O)Nc1cnc(-c2cncc(C(C)C(=O)Nc3ncc(SC)s3)c2)cn1 (stereo not shown) [Compound 71, N-(5-(5-(1-((5-(methylthio)thiazol-2-yl)amino)-1-oxopropan-2-yl)pyridin-3-yl)pyrazin-2-yl)acrylamide] |  |  | 3.2 |
| C=CC(=O)Nc1ccc(-c2csc(C(C)C(=O)Nc3ncc(CC)s3)c2)cn1 (stereo not shown) [Compound 77, N-(5-(5-(1-((5-ethylthiazol-2-yl)amino)-1-oxopropan-2-yl)thiophen-3-yl)pyridin-2-yl)acrylamide] |  |  | 16.7 |

Reference: US20230095520A1, “PHARMACEUTICAL COMPOSITION FOR PREVENTING OR TREATING CANCER COMPRISING AZOLE DERIVATIVES OR PHARMACEUTICALLY ACCEPTABLE SALT THEREOF” (Yungjin Pharm. Co., Ltd., priority 2020, published 2023)
